{"source": "patent US5168102A", "about": "“Endocrine manipulation to improve body composition of poultry” (priority 1990, dated 1992)", "key": {"[1]": {"assay": "Example 1: growth and feed efficiency of broiler cockerels fed thyroid-active substances with or without daily ncGH injection", "format": "in vivo, broiler cockerels (Ross X Arbor Acre strain)", "source_text": "(§1) The purpose of this study was to determine the effect manipulating blood levels of thyroid hormones and/or growth hormone on growth performance and body composition of broiler chickens. […] Purified natural chicken growth hormone (ncGH) was obtained from the Research and Education Center, Harbor-UCLA Medical Center, Torrance, Calif. […] The premix (200 g) was then used to prepare 50 kg batches of each experimental diet according to the formula for broiler-finisher ration described in Table 1. The diet containing 0.5% PTU was prepared by mixing 250 g of PTU into 49.75 kg of the basal ration (Table 1).\n(§2) Broiler cockerels (Ross X Arbor Acre strain) were raised to 3 weeks-of-age in a battery-brooder and then transferred to wire grow-out cages (4 birds/pen) held in two controlled-environment rooms (10 pens/room). Beginning at 3 weeks of age, eight birds (2 pens of 4 birds) were randomly assigned to each of 10 treatments. The chickens were provided the experimental diets and water ad libitum. […] For injection, the ncGH was reconstituted in sterile 0.025M sodium bicarbonate buffer (pH 9.8). The 10 treatments were administered for 21 days (i.e., from 3 to 6 weeks of age).\n(§3) Measurement of body weight and feed consumption at weekly intervals allowed calculation of the average daily gain (ADG, g/bird/day), average daily feed consumption (ADFC, g/bird/day) and the feed-to-gain ratio (FIG, kg feed/kg gain) over the 21 day experimental period. Blood samples were taken each week (4, 5, and 6 weeks) just before (pre-injection) and 4 hours post-injection of ncGH. […] At the conclusion of the study, birds were killed and the carcasses frozen for proximate analysis. The frozen carcasses were ground in a meat grinder and aliquots of each ground carcass taken for determination of moisture, protein, fat and ash by established analytical procedures (Official Method of Analysis, Edition 13, W. Horwitz ed., Association of Official Analytical Chemist, Washington, D.C., 1980). Body composition data are presented as a percent of live weight at 6 weeks-of-age. Least squares regression analysis was used to test for significant differences (P<0.05) due treatment."}, "[2]": {"conditions": "0.25 to 1 ppm in feed throughout entire growth cycle; cited from earlier work"}, "[3]": {"assay": "Example 3: final body weight and relative weights of liver, abdominal fat and muscles", "format": "in vivo, broiler cockerels", "method": "Day-old broiler cockerels were randomly assigned to 24 pens (5 birds/pen) in a battery brooder. The total duration of the bird management period lasted from 7 to 8 weeks. Hereafter, the end of the first week of life of the birds is referred to as week no. 1 (i.e. 7 days of life), the end of the second week as week no. 2, etc. At week no. 3, four birds from each pen were transferred to wire grow-out cages. […] 5 to week no. 7 (4 pens/treatment). Body weight and feed consumption were determined at weekly intervals. A 5 ml blood sample was obtained from each bird at week no. 7 and stored at -20° C. until assayed for plasma hormones.\nAt week no. 7 (49 days-of-age), one-half of the birds (8 birds/treatment) were killed for measurement of the abdominal fat pad and liver weights. The muscles were removed, weighed, frozen in liquid N2 and stored at -20° C. until analyzed. At 51 days-of-age, groups of 4 birds per treatment were given a subcutaneous infusion of 4 μCi/Kg of 14C-L-tyrosine emulsified in sesame seed oil and immediately placed in metabolism cages. The expired CO2 was trapped in 15 ml of scrubbing solution (1:2 ethanolamine/methyl cellusolve) and the tubes were changed every 15 minutes for 90 minutes. At 90 minutes, the birds were removed from the metabolism cages and blood was obtained via cardiac puncture. Birds were then sacrificed by cervical dislocation and the muscles were removed, weighed, frozen in liquid N2 and stored at -20° C. until analyzed. Radioactivity in the samples containing trapped CO2 was counted for 10 minutes using a liquid scintillation spectrophotometer. At 54 days-of-age, groups of 4 birds per treatment were killed, the muscles were dissected, weighed, and frozen until analyzed.\nThe right breast muscle, i.e. BM (Pectoralis major) and right leg muscles, i.e. LM (gastrocnemius and peroneus longus) were dissected out from the birds, weighed and immediately frozen in liquid nitrogen and stored at -20° C. until analyzed for tyrosine content as specific radioactivity of tyrosine. All muscle tissues were analyzed for protein content; only tissues from isotope experiments were analyzed for tyrosine content as specific radioactivity of tyrosine."}, "[4]": {"assay": "Example 1: plasma hormone concentrations (radioimmunoassays)", "source_text": "as §1, §2, §3"}, "receptor": {"tested_on": "receptor", "conditions": "cited from earlier work"}, "[5]": {"assay": "Example 2: plasma hormone concentrations", "format": "in vivo, broiler cockerels (Ross X Arbor Acre)", "conditions": "vs CF+BI or CF+GH treatment", "method": "Forty-eight 3-week-old broiler cockerels (Ross X Arbor Acre) were randomly divided into four treatment groups that contained three pens of four birds. The birds were housed in a controlled-environment room under a 20 hour light/4 hour dark cycle with feed and water provided ad libitum.\nThe preparation of ncGH used in this study was from the same lot used in Example 1.\nBody weights and feed consumption was determined at weekly intervals although the ADG, ADFC and FTG ratio was determined over the 21 day period. […] At the conclusion of the study (6 weeks-of-age), birds were killed and the abdominal fat removed and weighed. The liver and abdominal fat were returned to the carcass which was frozen for proximate analysis as described in […]"}, "[6]": {"conditions": "supplemented diets; cited from earlier work"}}, "note": "Where “and” joins values, the source holds several entries; their conditions need not be identical. Equal entries are not always repeated. Entries after “also recorded” stand apart in the source; their conditions may differ."}
{"smiles": "N[C@@H](Cc1cc(I)c(Oc2ccc(O)c(I)c2)c(I)c1)C(=O)O", "note": "[T3, 3,3',5-triiodo-L-thyronine]", "values": [{"measurement": "BW (body weight)", "setting": "[1]; 1 ppm T3, 1 ppm T4, 5 ppm TRH or 0.5% PTU in feed, 3 to 6 weeks of age, Group 1, mean ±SEM", "result": "1.70 ± .09 kg"}, {"measurement": "effect on growth rate and feed efficiency", "setting": "[1]; Group 1, dietary", "result": "did not affect growth rate or feed efficiency"}, {"measurement": "ADFC (average daily feed consumption)", "setting": "[1]; Group 1, dietary, 21 days", "result": "101.1 ± 5.2", "unit": "g/bird/day"}, {"measurement": "ADG (average daily weight gain)", "setting": "[1]; Group 1, dietary, 21 days", "result": "48.8 ± 4.3", "unit": "g/bird/day"}, {"measurement": "FTG (feed-to-gain ratio)", "setting": "[1]; Group 1, dietary, 21 days", "result": "2.08 ± .08 kg feed/kg gain"}, {"measurement": "body weight gain, feed efficiency / growth performance", "setting": "[2]", "result": "reduced body weight gain and feed efficiency"}, {"measurement": "relative weights of liver (RLW), right breast muscle (RBM), right leg muscle (RLM)", "setting": "[3]; 0, 0.25, 1 and 4 ppm", "result": "not different among treatments"}, {"measurement": "abdominal fat weight, reduction", "setting": "[3]; 0.25 ppm", "result": "22.2% and > 20% and 22%"}, {"measurement": "effect on final body weight", "setting": "[3]; 0.25 ppm", "result": "no significant adverse effect in final body weight; also recorded: do not appear to have a statistically significant effect upon final body weight"}, {"measurement": "BW (final body weight)", "setting": "[3]; 0.25 ppm of feed", "result": 2.42, "unit": "kg"}, {"measurement": "RBM (right breast muscle)", "setting": "[3]; 0.25 ppm of feed", "result": 5.60, "unit": "% BW"}, {"measurement": "RLM (right leg muscle)", "setting": "[3]; 0.25 ppm of feed", "result": 0.71, "unit": "% BW"}, {"measurement": "RLW (relative liver weight)", "setting": "[3]; 0.25 ppm of feed", "result": 2.24, "unit": "% BW"}, {"measurement": "effect on final body weight", "setting": "[3]; 1.0 ppm", "result": "significant sacrifice of final body weight"}, {"measurement": "abdominal fat weight, reduction", "setting": "[3]; 1.0 ppm (p<0.05)", "result": 26.6, "unit": "%"}, {"measurement": "Abdom. Fat", "setting": "[3]; 1.0 ppm of feed", "result": 1.88, "unit": "% BW"}, {"measurement": "BW (final body weight)", "setting": "[3]; 1.0 ppm of feed", "result": 2.33, "unit": "kg"}, {"measurement": "RBM (right breast muscle)", "setting": "[3]; 1.0 ppm of feed", "result": 5.36, "unit": "% BW"}, {"measurement": "RLM (right leg muscle)", "setting": "[3]; 1.0 ppm of feed", "result": 0.76, "unit": "% BW"}, {"measurement": "RLW (relative liver weight)", "setting": "[3]; 1.0 ppm of feed", "result": 2.14, "unit": "% BW"}, {"measurement": "effect on final body weight", "setting": "[3]; 4.0 ppm", "result": "excessive loss of final body weight"}, {"measurement": "abdominal fat weight, reduction", "setting": "[3]; 4.0 ppm (p<0.05)", "result": 63.3, "unit": "%"}, {"measurement": "final body weight, reduction", "setting": "[3]; 4.0 ppm (p<0.05)", "result": 22.2, "unit": "%"}, {"measurement": "Abdom. Fat", "setting": "[3]; 4.0 ppm of feed", "result": 0.94, "unit": "% BW"}, {"measurement": "BW (final body weight)", "setting": "[3]; 4.0 ppm of feed", "result": 1.99, "unit": "kg"}, {"measurement": "RBM (right breast muscle)", "setting": "[3]; 4.0 ppm of feed", "result": 5.81, "unit": "% BW"}, {"measurement": "RLM (right leg muscle)", "setting": "[3]; 4.0 ppm of feed", "result": 0.75, "unit": "% BW"}, {"measurement": "RLW (relative liver weight)", "setting": "[3]; 4.0 ppm of feed", "result": 2.18, "unit": "% BW"}, {"measurement": "I/G Molar Ratio", "setting": "[4]; Group 1, dietary, N = 24", "result": 0.51}, {"measurement": "plasma Glucagon (G)", "setting": "[4]; Group 1, dietary, N = 24", "result": 491, "unit": "pg/mL"}, {"measurement": "plasma Insulin (I)", "setting": "[4]; Group 1, dietary, N = 24", "result": 409, "unit": "pg/mL"}, {"measurement": "effect on insulin and glucagon secretion", "setting": "[4]; dietary T3 / elevated plasma T3", "result": "inhibit insulin secretion whereas glucagon secretion is enhanced; also recorded: depresses insulin secretion while glucagon secretion is increased"}, {"measurement": "plasma I/G molar ratio, fold lower", "setting": "[4]; vs CF birds (P<0.05)", "result": 4.3, "unit": "times"}, {"measurement": "plasma GH level, reduction", "setting": "[4]; vs CF treatment", "result": 32, "unit": "%"}, {"measurement": "plasma T4 level, reduction", "setting": "[4]; vs average of CF and TRH treatments (P<0.05)", "result": 58, "unit": "%"}, {"measurement": "metabolic activity of thyroid hormones", "setting": "receptor", "result": "most active compounds of formula I"}, {"measurement": "average plasma T3 level, fold higher", "setting": "[5]", "result": 2.3, "unit": "times"}, {"measurement": "depressed growth rate in dwarf strains", "setting": "[6]", "result": "restored to normal"}]}
